Non-standard residues stand in square brackets, D forms with d. Residues, ends and D or L forms follow the SMILES beside them.
Experiments:
Assay type in all cases: cell-based, human
[1] = system: JAM-A mRNA; assay: RT-PCR of JAM-A mRNA in HMEC-1 cells; conditions: Tβ4 200 nM or TGF-β1 10 ng/mL
[2] = system: breast cancer cells (MCF-7, MDA-MB-231) across HMEC-1 monolayer; assay: Transmigration (TEM) of breast cancer cells across the endothelial monolayer
Description: (§1) The peptides were synthesized and purified by LifeTein, LLC (Somerset, N.J., USA) with the purity of not less than 95% using PeptideSyn™ technology that incorporates solid phase fluorenylmethyloxycarbonyl (Fmoc) chemistry. The cells were treated with the peptide P4D for 0, 1, 5, or 24 hours at a concentration of 500 μM. The cells treated with the Scrambled peptide P4D (Scr; 500 μM; 0, 1, 5, or 24 hours incubation time) were used as a negative control. In order to provide the positive control of the junctions tightening for impedance-based measurements of endothelial permeability, the cells were incubated with the potent activator of TJ assembly, forskolin (FSK; BioShop, Burlington, ON, Canada), for 24 hours at a concentration of 10 μM.
HMEC-1 endothelial cells were cultured in fibronectin-coated Transwell units with polycarbonate filter and 8 μm pores (Costar, Corning, N.Y., USA) in 24-well plates for 2 days at 37° C. to form a confluent monolayer. Human breast cancer (MCF-7, MDA-MB-231) or non-tumorigenic (MCF-10A) human breast cells were starved overnight and labeled with the green fluorescent marker CellTracker Green CMFDA Dye (Molecular Probes, Eugene, Oreg., USA). An aliquot (1×10^5/well) of fluorescent breast cancer cells in serum-free medium was added in the top of the Transwell chamber, whereas the conditioned medium was used as a chemoattractant in the lower compartment. Non-tumorigenic human breast cell line MCF-10A was used as control. The wells containing the serum-free medium in the lower compartment were used to estimate the background migration. The breast cancer cells were allowed to migrate across the endothelial monolayer for 6 hours in a humidified incubator (temperature of 37° C. and 5% CO2 atmosphere) with or without the previously specified factors or with their combinations.
At the end of the transmigration assay, non-migrated cells were gently wiped out from the inner surface of the membrane with cosmetic cotton swab. The assay was documented at 200× magnification (10× eyepiece and 20× objective) with fluorescent inverted microscope Axio Vert.A1 (Zeiss, Oberkochen, Germany) and high-performance CMOS 2.3-MP AxioCam 702 mono digital camera (Zeiss) controlled by ZEN software, version 2.3 (Zeiss). The migrated cells (five randomly chosen fields of each well) were counted using the Cell Counter tool of the ImageJ software. Cell migration towards serum-free medium was treated as background and subtracted from the corresponding numbers of cells migrated towards conditioned medium.

[3] = system: MCF-10A cells across HMEC-1 monolayer; assay: Transmigration (TEM) of MCF-10A cells across the endothelial monolayer
Description: as §1
HMEC-1 endothelial cells were cultured in fibronectin-coated Transwell units with polycarbonate filter and 8 μm pores (Costar, Corning, N.Y., USA) in 24-well plates for 2 days at 37° C. to form a confluent monolayer. […]
At the end of the transmigration assay, non-migrated cells were gently wiped out from the inner surface of the membrane with cosmetic cotton swab. […] The migrated cells (five randomly chosen fields of each well) were counted using the Cell Counter tool of the ImageJ software. […]

[4] = system: breast cancer cells (MCF-7, MDA-MB-231) on HMEC-1 cells; assay: Adhesion of breast cancer cells to endothelial monolayer under static conditions; conditions: P4D 500 μM
Description: as §1
Adhesion of human breast cancer (MCF-7, MDA-MB-231) or non-tumorigenic (MCF-10A) human breast cells to HMEC-1 cells was performed in 24-well plates. HMEC-1 cells were seeded to the bottom of the fibronectin-coated wells 2 days before the assay to form the monolayer and subjected to a suitable treatment. Breast cancer or non-tumorigenic cells were starved overnight and on the day of the assay were labeled with CellTracker Green CMFDA Dye for 30 minutes. […] The adherent cells were lysed by 2% SDS and the fluorescence was measured using the Wallac 1420 VICTOR2 Multilabel Counter (PerkinElmer) at 492 nm of excitation and 517 nm of emission wavelengths.

[5] = system: HMEC-1 endothelial monolayer; assay: Macromolecular permeability of endothelial monolayer (FITC-dextran tracer assay)
Description: Macromolecular permeability of endothelial monolayer was analyzed by macromolecular tracer assay. HMEC-1 cells were grown in Transwell inserts with polyethylene terephthalate (PET) filters and 0.4-μm pores (Falcon, cat. #353095) in 24-well plates (Falcon, cat. #351147) at 1.5×10^5 cells/insert and immediately treated with P4D peptide (P4D) or with Scrambled P4D peptide (Scr) at a concentration of 500 μM (the samples indicated as 0 hours of incubation). Non-treated cells served as a control sample (Ctrl). Moreover, HMEC-1 cells were treated with P4D peptide at the following periods of time after seeding: 1 hour, 5 hours and 24 hours. One hour after the last treatment with P4D (24 hours) FITC-dextran with a molecular weight of 40 kDa was added into the inserts and the culture medium from the wells was replaced with PBS. After 1 hour incubation in darkness in a humidified incubator with the temperature of 37° C. and 5% CO2 atmosphere, the PBS from the wells (outside the inserts) was transferred into the wells of a black 96-well plate and the fluorescence was measured using the Wallac 1420 VICTOR2 Multilabel Counter (PerkinElmer, Waltham, Mass., USA) at 492 nm of excitation and 517 nm of emission wavelengths.

Row | Compound | JAM-A expression on mRNA level [1] | transmigration of MCF-7 and MDA-MB-231 across HMEC-1 monolayer, effect of Tβ4 ([2]; Tβ4 200 nM, 24 hours, vs. CTRL (non-treated) cells) | TEM of MCF-10A cells, effect of Tβ4 ([3]; Tβ4 200 nM, 24 hours, in the presence of the Scr peptide) | adhesion of MECs to inflamed endothelial monolayer ([4]; HMEC-1 preincubated with TNF-α 10 ng/ml and IFN-γ 20 ng/ml for 24 hours) | extent of adhesion inhibition, MDA-MB-231 cells compared with other MECs ([4]; cytokine-inflamed HMEC-1) | transmigration of breast cancer cells across cytokine-activated endothelial monolayer ([2]; P4D 500 μM, HMEC-1 preincubated with TNF/IFN) | Tβ4-activated TEM ([2]; P4D 500 μM, HMEC-1 preincubated with Tβ4 200 nM for 24 hours, all tested MECs (MCF-7, MDA-MB-231, MCF-10A)) | degree of TEM inhibition, MCF-7 cells compared with other MECs ([2]; P4D 500 μM, inflamed endothelium) | transmigration of MCF-10A cells across cytokine-treated endothelium ([3]; P4D 500 μM, TNF/IFN-treated HMEC-1) | effect on preexisting tight junctions (FITC-dextran flux) ([5]; P4D 500 μM applied 1, 5 or 24 hours after seeding) | transendothelial flux of 40-kDa FITC-dextran ([5]; P4D 500 μM applied immediately after the cells were seeded (0 hours))
1 | Thymosin β4 (SDKPDMAEIEKFDKSKLKKTETQEKNPLPSKETIEQEKQAGES; not fully specified; Thymosin beta-4; UniProt P62328 2-44, looked up) [Tβ4] | no observed changes of JAM-A expression on mRNA level | slightly stimulated | significantly elevated the TEM of MCF-10A cells | – | – | – | – | – | – | – | –
2 | CC(C)[C@H](NC(=O)[C@H](CO)NC(=O)[C@H](N)CCCCN)C(=O)N[C@H](C(=O)N[C@H](CCCNC(=N)N)C(=O)N[C@@H](CCC(=O)O)C(=O)N[C@@H](CC(=O)O)C(=O)N[C@H](C(=O)NCC(=O)N[C@H](C(=O)N[C@@H](Cc1ccc(O)cc1)C(=O)N[C@H](C(=O)N[C@@H](CS)C(N)=O)[C@@H](C)O)[C@@H](C)O)[C@@H](C)O)[C@@H](C)O [Peptide P4D, NH2-(dK)-SVT-(dR)-EDTGTYTC-CONH2] (H-[dK]SVT[dR]EDTGTYTC-NH2) | – | – | – | restrained the adhesion of MECs to the inflamed endothelial monolayer | most pronounced | hindered | abrogated the Tβ4-activated TEM | highest degree of TEM inhibition | markedly inhibited | did not disrupt the preexisting ones | elevated
